Holding throughout (assay type): functional
Test [1] has as its system Staphylococcus aureus. As to the kind of experiment: Antibacterial activity against Staphylococcus aureus subsp. aureus ATCC 29213 incubated for 24 hrs by photometry. The following applies: ATCC 29213, 24 h.
For test [2], the system named is Pseudomonas aeruginosa. Nature of the test: Antibacterial activity against Pseudomonas aeruginosa ATCC 27853 incubated for 24 hrs by photometry. The following applies: ATCC 27853, 24 h.
Test [3] relates to Salmonella enterica subsp. enterica. As to the kind of experiment: Antibacterial activity against Salmonella enterica subsp. enterica ATCC 14028 incubated for 24 hrs by photometry. The conditions noted are these: ATCC 14028, 24 h.

The structures appear in SMILES notation. In brackets after ≈: the same amount, converted by molar mass.

As for `CC(C)[C@H]1CC(=O)[C@]23[C@@H]4C=C(CO)C[C@@H](O)[C@@H]4[C@@]2(C)CC[C@]13C`, the MIC50 was 14.3 µg/mL (≈ 44.9 µM) in test [1], over 128 µg/mL in test [2] and 77.9 µg/mL (≈ 245 µM) in test [3].

Take `CC1(C)S[C@@H]2[C@H](NC(=O)Cc3ccccc3)C(=O)N2C1C(=O)[O-].[Na+]` (some centres undefined): the MIC50 in test [1] was 0.81 µg/mL; in test [3] it was 1.32 µg/mL.

For `C[C@H](CO)[C@H]1CC(=O)C23[C@@H]4C=C(CO)CC[C@@H]4[C@@]2(C)CC[C@]13C` (some centres undefined), the MIC50 in test [1] is 22.7 µg/mL (≈ 71.3 µM); in test [2], over 128 µg/mL; in test [3] it was 102 µg/mL (≈ 319 µM).

The molecule `CC(C)(O/N=C(\C(=O)N[C@@H]1C(=O)N2C(C(=O)[O-])=C(C[n+]3ccccc3)CS[C@H]12)c1csc(N)n1)C(=O)O` [CEFTAZIDIME] returned an MIC50 in test [2] of 0.08 µg/mL (≈ 0.146 µM).

The values above are taken from ChEMBL document CHEMBL4627374, “Psathyrins: Antibacterial Diterpenoids from Psathyrella candolleana” (2020).
